Test results from patent publication US20040014706A1, “Use of carp inhibitors for the treatment of heart diseases” (priority 2000, published 2004).

Experiments:
[1] = Isoprenaline-induced cardiac hypertrophy in rats (heart weight/body weight); format: in vivo, Male Wistar rats; conditions: 2.4 mg/kg/d, Alzet mini pump, 4 days; vs NaCl controls
Procedure: (§1) Male Wistar rats were treated with isoprenaline (ISO, 2.4 mg/kg/d, Alzet mini pump) for 4 days. Controls were infused with NaCl. […] To gain further insight into the mechanism by which CARP expression is regulated, isolated myocytes were treated with ISO (1 μM) and phenylephrine (PE, 50 μM). For comparison the effects of the alpha-adrenoceptor agonist phenylephrine (PE, 50 μM) were studied.

CARP mRNA [2] = test: CARP mRNA expression in left ventricular myocardium of treated rats, Northern blot; format: in vivo, Male Wistar rats; conditions: 2.4 mg/kg/d, 4 days
Procedure: as §1

CARP protein [3] = test: CARP protein in treated rats, Western blot; format: in vivo, Male Wistar rats; conditions: 2.4 mg/kg/d, 4 days
Procedure: as §1

CARP protein [4] = test: CARP protein levels in isolated myocytes treated with adrenoceptor agonists; format: cell-based; conditions: ISO 1 μM, PE 50 μM, n=4
Procedure: as §1

CARP mRNA [5] = test: CARP mRNA levels in isolated myocytes treated with adrenoceptor agonists and kinase inhibitors; format: cell-based; conditions: for CARP mRNA/GAPDH mRNA: ISO 1 μM (n=9), PE 50 μM (n=11); for reversal of the effects of ISO and PE on CARP mRNA expression: ISO 1 μM, PE 50 μM
Procedure: as §1

CC(C)NCC(O)c1ccc(O)c(O)c1 (centres unmarked) [ISO, isoprenaline]
increase in heart weight/body weight ratio [1]: 40% | CARP mRNA/GAPDH mRNA (CARP mRNA [2]; LV myocardium, n=6, NaCl control 1.3±0.12): 3.1±0.5 | increase in CARP mRNA expression in left ventricular (LV) myocardium (CARP mRNA [2]; Northern blot, vs NaCl): 140% | increase in CARP protein (CARP protein [3]; Western blot, vs NaCl): 50% | CARP/calsequestrin (CARP protein [3]; n=6, NaCl control 0.41±0.03): 0.61±0.07 | CARP/CSQ (CARP protein level) (CARP protein [4]): 161±10 % of control | CARP mRNA/GAPDH mRNA (CARP mRNA [5]): 148±10 % of control

CNC[C@H](O)c1cccc(O)c1 [PE, phenylephrine]
CARP/CSQ (CARP protein level) (CARP protein [4]): 172±7 % of control | CARP mRNA/GAPDH mRNA (CARP mRNA [5]): 178±20 % of control

C[S+]([O-])c1ccc(-c2nc(-c3ccncc3)c(-c3ccc(F)cc3)[nH]2)cc1 (centres unmarked) [SB203580]
reversal of the effects of ISO and PE on CARP mRNA expression (CARP mRNA [5]): not

N#CC(=C(/N)Sc1ccccc1N)/C(C#N)=C(\N)Sc1ccccc1N [U0126]
reversal of the effects of ISO and PE on CARP mRNA expression (CARP mRNA [5]): completely reversed
